# Test results reported in patent publication US20100298141A1, “SUBSTITUTED PYRIDINE N-OXIDE HERBICIDES” (E. I. DU PONT DE NEMOURS AND COMPANY, priority 2007, published 2010).
# What was measured:
# bermudagrass = test: Test C pre-/postemergence test; format: in vivo, Cynodon dactylon; conditions: for Plant response rating, Bermudagrass: 31 g ai/ha
# In short: (§1)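 Compounds in a non-phytotoxic solvent with surfactant applied preemergence to seeded pots and, at the same time, postemergence to plants 2–18 cm tall (1- to 4-leaf stage). Paddy tests: pots flooded to 3 cm, compound applied into the water, depth held throughout.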
# Surinam grass = test: Test C pre-/postemergence test; format: in vivo, Brachiaria decumbens; conditions: for Plant response rating, Surinam Grass: 31 g ai/ha, scale 0 to 100 (0 no effect, 100 complete control)
# In short: as §1
# Goosegrass = test: Test C pre-/postemergence test; format: in vivo, Eleusin indica; conditions: for Plant response rating, Goosegrass: 31 g ai/ha, scale 0 to 100 (0 no effect, 100 complete control)
# In short: as §1
# giant foxtail [1] = test: Test A pre-/postemergence greenhouse test; format: in vivo, Setaria faberi; conditions: for Foxtail, Giant plant response rating: 0 to 100 scale; for Plant response rating, Foxtail, Giant: 0 to 100 scale where 0 is no effect and 100 is complete control
# In short: (§2)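 Test compounds in non-phytotoxic solvent with surfactant were applied as a preemergence soil spray to seeded loam/sand pots and, concurrently, postemergence to plants at 2–10 cm, one- to two-leaf stage. About ten days in greenhouse, then injury visually rated against untreated controls.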
# wild oat = test: Test C pre-/postemergence test; format: in vivo, Avena fatua; conditions: for Plant response rating, Oat, Wild: 31 g ai/ha, scale 0 to 100 (0 no effect, 100 complete control)
# In short: as §1
# johnsongrass = test: Test C pre-/postemergence test; format: in vivo, Sorghum halepense; conditions: for Plant response rating, Johnsongrass: 31 g ai/ha, scale 0 to 100 (0 no effect, 100 complete control)
# In short: as §1
# giant foxtail [2] = test: Test C pre-/postemergence test; format: in vivo, Setaria faberii; conditions: for Plant response rating, Foxtail, Giant: 31 g ai/ha, scale 0 to 100 (0 no effect, 100 complete control)
# In short: as §1
# corn = test: Test A pre-/postemergence greenhouse test; format: in vivo, Zea mays; conditions: for Corn plant response rating: 0 to 100 scale; for Plant response rating, Corn: 0 to 100 scale where 0 is no effect and 100 is complete control
# In short: as §2
# velvetleaf [3] = test: Test A pre-/postemergence greenhouse test; format: in vivo, Abutilon theophrasti; conditions: for Velvetleaf plant response rating: 0 to 100 scale; for Plant response rating, Velvetleaf: 0 to 100 scale where 0 is no effect and 100 is complete control
# In short: as §2
# redroot pigweed = test: Test A pre-/postemergence greenhouse test; format: in vivo, Amaranthus retroflexus; conditions: for Pigweed plant response rating: 0 to 100 scale; for Plant response rating, Pigweed: 0 to 100 scale where 0 is no effect and 100 is complete control
# In short: as §2
# barnyardgrass = test: Test C flooded paddy test; format: in vivo, Echinochloa crus-galli; conditions: Flood
# In short: (§3)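 Test compounds are applied straight into paddy water held 3 cm above the soil surface, with that flood maintained for the whole test. After 13 to 15 days in the greenhouse, each species is scored visually relative to controls.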
# duck salad = test: Test C flooded paddy test; format: in vivo, Heteranthera limosa; conditions: Flood
# In short: as §3
# velvetleaf [4] = test: Test C pre-/postemergence test; format: in vivo, Abutilon theophrasti; conditions: for Plant response rating, Velvetleaf: 31 g ai/ha, scale 0 to 100 (0 no effect, 100 complete control)
# In short: as §1
# rice = test: Test C flooded paddy test; format: in vivo, Oryza sativa; conditions: Flood
# In short: as §3
# common ragweed = test: Test C pre-/postemergence test; format: in vivo, Ambrosia elation; conditions: for Plant response rating, Ragweed: 31 g ai/ha, scale 0 to 100 (0 no effect, 100 complete control)
# In short: as §1
# eastern black nightshade = test: Test C pre-/postemergence test; format: in vivo, Solanum ptycanthum; conditions: for Plant response rating, Nightshade: 31 g ai/ha, scale 0 to 100 (0 no effect, 100 complete control)
# In short: as §1
# lambsquarters = test: Test C pre-/postemergence test; format: in vivo, Chenopodium album; conditions: for Plant response rating, Lambsquarters: 31 g ai/ha, scale 0 to 100 (0 no effect, 100 complete control)
# In short: as §1
# wheat = test: Test A pre-/postemergence greenhouse test; format: in vivo, Triticum aestivum; conditions: for Wheat plant response rating: 0 to 100 scale; for Plant response rating, Wheat: 0 to 100 scale where 0 is no effect and 100 is complete control
# In short: as §2
# [5] = 62 g ai/ha, Preemergence, scale 0 to 100 (0 no effect, 100 complete control)
# [6] = Preemergence, scale 0 to 100 (0 no effect, 100 complete control)
# [7] = 62 g ai/ha, Preemergence, scale 0 to 100
# [8] = Postemergence, 125 g ai/ha, 0 is no effect, 100 is complete control
# [9] = Postemergence, 500 g ai/ha, 0 is no effect, 100 is complete control
# [10] = Preemergence, 125 g ai/ha, 0 no effect, 100 complete control
# [11] = 31 g ai/ha, scale 0 to 100 (0 no effect, 100 complete control)
# [12] = 62 g ai/ha, scale 0 to 100, 0 no effect, 100 complete control, 13 to 15 days
# [13] = 125 g ai/ha, scale 0 to 100, 0 no effect, 100 complete control, 13 to 15 days
# [14] = 250 g ai/ha, scale 0 to 100 (0 no effect, 100 complete control)
# [15] = 125 g ai/ha, preemergence, scale 0 (no effect) to 100 (complete control)
# [16] = preemergence, 250 g ai/ha, scale 0 (no effect) to 100 (complete control)
# [17] = 250 g ai/ha, scale 0 to 100, 0 no effect, 100 complete control, 13 to 15 days
smiles,measurement,setting,value
Cc1cc[n+]([O-])c(S(=O)(=O)Cc2c(C(F)(F)F)nn(C)c2Cl)c1 [Compound 19],Bermudagrass plant response rating,bermudagrass; [5],100
same,"Plant response rating, Bermudagrass",bermudagrass; [6],85
same,"Plant response rating (0 to 100), Bermudagrass","bermudagrass; Preemergence, 250 g ai/ha",100
same,Bermudagrass plant response rating,"bermudagrass; preemergence, 125 g ai/ha, scale 0 (no effect) to 100 (complete control)",100
same,Surinam Grass plant response rating,Surinam grass; [7],50
same,"Plant response rating, Surinam Grass",Surinam grass; Preemergence,0
same,Goosegrass plant response rating,Goosegrass; [7],100
same,"Plant response rating, Goosegrass",Goosegrass; Preemergence,100
same,"Plant response rating (0 to 100), Goosegrass","Goosegrass; Preemergence, 250 g ai/ha",100
same,"Foxtail, Giant plant response rating",giant foxtail [1]; [8],50
same,"Foxtail, Giant plant response rating",giant foxtail [1]; [9],80
same,"Foxtail, Giant plant response rating",giant foxtail [1]; [10],80
same,"Plant response rating, Foxtail, Giant","giant foxtail [1]; Preemergence, 500 g ai/ha",100
same,"Oat, Wild plant response rating",wild oat; [7],0
same,"Plant response rating, Oat, Wild",wild oat; Preemergence,0
same,Johnsongrass plant response rating,johnsongrass; [7],80
same,"Plant response rating, Johnsongrass",johnsongrass; Preemergence,10
same,"Plant response rating (0 to 100), Johnsongrass","johnsongrass; Preemergence, 250 g ai/ha",100
same,"Foxtail, Giant plant response rating",giant foxtail [2]; [7],100
same,"Plant response rating, Foxtail, Giant",giant foxtail [2]; Preemergence,100
same,"Plant response rating (0 to 100), Foxtail, Giant","giant foxtail [2]; Preemergence, 250 g ai/ha",100
same,Corn plant response rating,corn; [8],0
same,Corn plant response rating,corn; [9],50
same,Corn plant response rating,corn; [10],30
same,"Plant response rating, Corn","corn; Preemergence, 500 g ai/ha",50
same,Velvetleaf plant response rating,velvetleaf [3]; [8],20
same,Velvetleaf plant response rating,velvetleaf [3]; [9],40
same,Velvetleaf plant response rating,velvetleaf [3]; [10],0
same,"Plant response rating, Velvetleaf","velvetleaf [3]; Preemergence, 500 g ai/ha",50
same,Pigweed plant response rating,redroot pigweed; [8],10
same,Pigweed plant response rating,redroot pigweed; [9],30
same,Pigweed plant response rating,redroot pigweed; [10],100
same,"Plant response rating, Pigweed","redroot pigweed; Preemergence, 500 g ai/ha",100
same,"Plant response rating, Barnyardgrass",barnyardgrass; [11],0
same,"Plant response rating, Barnyardgrass",barnyardgrass; [12],0
same,"Plant response rating, Barnyardgrass",barnyardgrass; [13],30
same,"Plant response rating, Barnyardgrass",barnyardgrass; [14],75
same,"Plant response rating, Ducksalad",duck salad; [11],0
same,"Plant response rating, Ducksalad",duck salad; [12],0
same,"Plant response rating, Ducksalad",duck salad; [13],0
same,"Plant response rating, Ducksalad",duck salad; [14],75
same,Velvetleaf plant response rating,velvetleaf [4]; [7],0
same,"Plant response rating, Velvetleaf",velvetleaf [4]; Preemergence,0
same,"Plant response rating, Rice",rice; [11],0
same,"Plant response rating, Rice",rice; [12],0
same,"Plant response rating, Rice",rice; [13],30
same,"Plant response rating, Rice",rice; [14],70
same,Ragweed plant response rating,common ragweed; [7],0
same,"Plant response rating, Ragweed",common ragweed; Preemergence,0
same,Nightshade plant response rating,eastern black nightshade; [7],100
same,"Plant response rating, Nightshade",eastern black nightshade; Preemergence,85
same,Lambsquarters plant response rating,lambsquarters; [7],0
same,"Plant response rating, Lambsquarters",lambsquarters; Preemergence,0
same,Wheat plant response rating,wheat; [8],0
same,Wheat plant response rating,wheat; [9],50
same,Wheat plant response rating,wheat; [10],40
same,"Plant response rating, Wheat","wheat; Preemergence, 500 g ai/ha",70
Cc1cc[n+]([O-])c(S(=O)(=O)C(Cl)c2c(C(F)(F)F)nn(C)c2OCC(F)(F)F)c1 (racemic) [Compound 37],Bermudagrass plant response rating,bermudagrass; [5],90
same,Bermudagrass plant response rating,bermudagrass; [15],100
same,"Plant response rating, Bermudagrass",bermudagrass; [6],85
same,Bermudagrass plant response rating,bermudagrass; [16],100
same,Surinam Grass plant response rating,Surinam grass; [7],100
same,Surinam Grass plant response rating,Surinam grass; [15],100
same,"Plant response rating, Surinam Grass",Surinam grass; Preemergence,50
same,Surinam Grass plant response rating,Surinam grass; [16],100
same,Goosegrass plant response rating,Goosegrass; [7],100
same,Goosegrass plant response rating,Goosegrass; [15],100
same,"Plant response rating, Goosegrass",Goosegrass; Preemergence,85
same,Goosegrass plant response rating,Goosegrass; [16],100
same,"Foxtail, Giant plant response rating",giant foxtail [1]; [8],30
same,"Foxtail, Giant plant response rating",giant foxtail [1]; [9],80
same,"Foxtail, Giant plant response rating",giant foxtail [1]; [10],90
same,"Plant response rating, Foxtail, Giant","giant foxtail [1]; Preemergence, 500 g ai/ha",100
same,"Plant response rating, Oat, Wild",wild oat; Preemergence,0
same,"Oat, Wild plant response rating",wild oat; [16],60
same,Johnsongrass plant response rating,johnsongrass; [7],80
same,Johnsongrass plant response rating,johnsongrass; [15],80
same,"Plant response rating, Johnsongrass",johnsongrass; Preemergence,50
same,Johnsongrass plant response rating,johnsongrass; [16],95
same,"Foxtail, Giant plant response rating",giant foxtail [2]; [7],70
same,"Foxtail, Giant plant response rating",giant foxtail [2]; [15],85
same,"Plant response rating, Foxtail, Giant",giant foxtail [2]; Preemergence,20
same,"Foxtail, Giant plant response rating",giant foxtail [2]; [16],100
same,Corn plant response rating,corn; [8],0
same,Corn plant response rating,corn; [9],40
same,Corn plant response rating,corn; [10],0
same,"Plant response rating, Corn","corn; Preemergence, 500 g ai/ha",30
same,Velvetleaf plant response rating,velvetleaf [3]; [8],0
same,Velvetleaf plant response rating,velvetleaf [3]; [9],10
same,Velvetleaf plant response rating,velvetleaf [3]; [10],40
same,"Plant response rating, Velvetleaf","velvetleaf [3]; Preemergence, 500 g ai/ha",80
same,Pigweed plant response rating,redroot pigweed; [8],20
same,Pigweed plant response rating,redroot pigweed; [9],50
same,Pigweed plant response rating,redroot pigweed; [10],100
same,"Plant response rating, Pigweed","redroot pigweed; Preemergence, 500 g ai/ha",100
same,"Plant response rating, Barnyardgrass",barnyardgrass; [11],10
same,"Plant response rating, Barnyardgrass",barnyardgrass; [12],10
same,"Plant response rating, Barnyardgrass",barnyardgrass; [13],10
same,"Plant response rating, Barnyardgrass",barnyardgrass; [17],80
same,"Plant response rating, Ducksalad",duck salad; [11],20
same,"Plant response rating, Ducksalad",duck salad; [12],40
same,"Plant response rating, Ducksalad",duck salad; [13],85
same,"Plant response rating, Ducksalad",duck salad; [17],95
same,Velvetleaf plant response rating,velvetleaf [4]; [7],0
same,Velvetleaf plant response rating,velvetleaf [4]; [15],10
same,"Plant response rating, Velvetleaf",velvetleaf [4]; Preemergence,0
same,Velvetleaf plant response rating,velvetleaf [4]; [16],70
same,"Plant response rating, Rice",rice; [11],15
same,"Plant response rating, Rice",rice; [12],15
same,"Plant response rating, Rice",rice; [13],25
same,"Plant response rating, Rice",rice; [17],70
same,Ragweed plant response rating,common ragweed; [7],0
same,Ragweed plant response rating,common ragweed; [15],70
same,"Plant response rating, Ragweed",common ragweed; Preemergence,0
same,Ragweed plant response rating,common ragweed; [16],80
same,Nightshade plant response rating,eastern black nightshade; [7],80
same,Nightshade plant response rating,eastern black nightshade; [15],85
same,"Plant response rating, Nightshade",eastern black nightshade; Preemergence,80
same,Nightshade plant response rating,eastern black nightshade; [16],90
same,Lambsquarters plant response rating,lambsquarters; [7],80
same,Lambsquarters plant response rating,lambsquarters; [15],100
same,"Plant response rating, Lambsquarters",lambsquarters; Preemergence,0
same,Lambsquarters plant response rating,lambsquarters; [16],100
same,Wheat plant response rating,wheat; [8],0
same,Wheat plant response rating,wheat; [9],50
same,Wheat plant response rating,wheat; [10],20
same,"Plant response rating, Wheat","wheat; Preemergence, 500 g ai/ha",50
